Data as given in US20240059691A1 (KALVISTA PHARMACEUTICALS LIMITED, priority 2020, published 2024).

Tests used:
Assay type in all cases: biochemical
Human Factor XIIa = Human Factor XIIa (Homo sapiens (Human), UniProt P00748); assay: Determination of FXIIa inhibition (fluorogenic substrate H-DPro-Phe-Arg-AFC, IC50 assay); conditions: substrate H-DPro-Phe-Arg-AFC at Km, 25° C.; class scale A-G
Outline: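 Human FXIIa incubated at 25° C with fluorogenic substrate H-DPro-Phe-Arg-AFC at its Km concentration and varying compound concentrations. Fluorescence release monitored over 5 min at 25° C; linear rate expressed as % of uninhibited activity to derive IC50.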

Plasma Kallikrein = Plasma Kallikrein (Homo sapiens (Human), UniProt P03952); assay: Determination of related protease inhibition: Plasma Kallikrein (fluorogenic substrate at Km); conditions: 25° C., read-out: IC50 (human PKal)
Chain of Plasma Kallikrein (P03952 391-638): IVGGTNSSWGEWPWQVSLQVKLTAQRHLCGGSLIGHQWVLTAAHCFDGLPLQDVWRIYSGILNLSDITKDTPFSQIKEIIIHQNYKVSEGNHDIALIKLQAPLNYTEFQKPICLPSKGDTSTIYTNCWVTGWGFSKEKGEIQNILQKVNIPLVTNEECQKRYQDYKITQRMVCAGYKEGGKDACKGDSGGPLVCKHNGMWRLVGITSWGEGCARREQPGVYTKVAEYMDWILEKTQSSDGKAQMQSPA
Chain of Plasma Kallikrein (P03952 20-390 partner): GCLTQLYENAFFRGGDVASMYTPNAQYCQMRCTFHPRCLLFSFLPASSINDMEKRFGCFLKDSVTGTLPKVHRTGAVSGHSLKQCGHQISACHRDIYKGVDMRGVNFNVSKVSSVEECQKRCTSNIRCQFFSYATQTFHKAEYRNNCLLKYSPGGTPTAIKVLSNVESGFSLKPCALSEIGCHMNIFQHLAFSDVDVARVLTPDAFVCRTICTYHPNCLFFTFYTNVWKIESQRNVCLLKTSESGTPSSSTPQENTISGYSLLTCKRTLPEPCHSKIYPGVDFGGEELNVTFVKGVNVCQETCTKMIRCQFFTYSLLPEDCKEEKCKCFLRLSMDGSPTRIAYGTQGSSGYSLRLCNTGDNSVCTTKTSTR
Outline: (§1)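 Human enzymes incubated with varied inhibitor concentrations and fluorogenic substrate at Km. Fluorescence release followed over 5 min at 25 °C; linear rate expressed as % activity, IC50 as inhibitor concentration giving 50% inhibition of uninhibited enzyme.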

FXa = FXa (Homo sapiens (Human), UniProt P00742); assay: Determination of related protease inhibition: FXa (fluorogenic substrate at Km); conditions: 25° C.
Chain of FXa (P00742 235-488): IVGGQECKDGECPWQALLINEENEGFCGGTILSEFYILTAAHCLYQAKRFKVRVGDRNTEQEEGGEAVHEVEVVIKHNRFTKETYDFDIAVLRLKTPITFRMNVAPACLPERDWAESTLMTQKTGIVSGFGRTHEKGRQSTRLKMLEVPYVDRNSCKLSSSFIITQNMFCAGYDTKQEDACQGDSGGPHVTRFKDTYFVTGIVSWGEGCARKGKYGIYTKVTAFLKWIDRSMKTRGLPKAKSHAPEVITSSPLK
Chain of FXa (P00742 41-179 partner): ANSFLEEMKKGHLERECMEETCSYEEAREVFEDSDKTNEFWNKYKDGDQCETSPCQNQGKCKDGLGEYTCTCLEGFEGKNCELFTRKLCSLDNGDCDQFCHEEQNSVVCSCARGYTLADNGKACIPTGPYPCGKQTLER
Outline: as §1

Thrombin = Thrombin (Homo sapiens (Human), UniProt P00734); assay: Determination of related protease inhibition: Thrombin (fluorogenic substrate at Km); conditions: 25° C.
Outline: as §1

FXIa = FXIa (Homo sapiens (Human), UniProt P03951); assay: Determination of related protease inhibition: FXIa (fixed substrate concentration of 100 μM); conditions: 25° C.
Chain of FXIa (P03951 388-625): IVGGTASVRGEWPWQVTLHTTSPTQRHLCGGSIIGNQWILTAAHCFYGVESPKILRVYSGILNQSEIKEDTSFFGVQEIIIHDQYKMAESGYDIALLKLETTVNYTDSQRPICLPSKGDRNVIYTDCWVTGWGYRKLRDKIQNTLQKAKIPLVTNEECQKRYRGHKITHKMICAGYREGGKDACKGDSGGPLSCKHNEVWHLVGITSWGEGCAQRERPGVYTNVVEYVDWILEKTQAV
Chain of FXIa (P03951 19-387 partner): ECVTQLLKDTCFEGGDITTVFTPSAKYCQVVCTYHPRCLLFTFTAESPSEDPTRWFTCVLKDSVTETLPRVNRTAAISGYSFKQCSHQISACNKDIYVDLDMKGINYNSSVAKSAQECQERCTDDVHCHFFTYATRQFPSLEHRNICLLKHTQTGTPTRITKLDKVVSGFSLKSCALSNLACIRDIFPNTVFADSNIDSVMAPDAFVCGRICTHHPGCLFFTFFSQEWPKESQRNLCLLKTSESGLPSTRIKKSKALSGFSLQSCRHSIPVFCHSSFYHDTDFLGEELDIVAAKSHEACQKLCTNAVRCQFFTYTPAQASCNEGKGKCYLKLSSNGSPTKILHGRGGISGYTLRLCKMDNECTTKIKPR
Procedure: Determination of Related Protease Inhibition
In vitro inhibition of related proteases was determined using an ([…] assay based on standard literature methods (see e.g. Shori et al., Biochem. Pharmacol., 1992, 43, 1209; Bouckaert et al., European Journal of Medicinal Chemistry 110 (2016) 181). Human serine protease enzymes Plasma Kallikrein, KLK1, FXa, Plasmin, Thrombin and Trypsin were assayed for enzymatic activity using an appropriate fluorogenic substrate at Km concentration, FXIa at fixed substrate concentration of 100 μM, and various concentrations of the test compound. Protease activity was measured by monitoring the accumulation of liberated fluorescence from the substrate over […]. The linear rate of fluorescence increase per minute was expressed as percentage (%) activity. IC50 values were calculated as the concentration of inhibitor giving 50% inhibition of the uninhibited enzyme activity (100%).

KLK1 = KLK1 (Homo sapiens (Human), UniProt P06870); assay: Determination of related protease inhibition: KLK1 (fluorogenic substrate at Km); conditions: 25° C.
Chain of KLK1 (P06870 25-262): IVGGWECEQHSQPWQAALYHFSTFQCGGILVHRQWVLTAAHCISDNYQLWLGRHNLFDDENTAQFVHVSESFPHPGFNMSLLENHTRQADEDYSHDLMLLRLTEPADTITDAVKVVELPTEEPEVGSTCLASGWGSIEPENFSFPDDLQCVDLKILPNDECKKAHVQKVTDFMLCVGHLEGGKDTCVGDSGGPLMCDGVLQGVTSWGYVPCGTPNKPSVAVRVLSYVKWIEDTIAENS
Outline: as §1

Chain of Human Factor XIIa (P00748 373-615): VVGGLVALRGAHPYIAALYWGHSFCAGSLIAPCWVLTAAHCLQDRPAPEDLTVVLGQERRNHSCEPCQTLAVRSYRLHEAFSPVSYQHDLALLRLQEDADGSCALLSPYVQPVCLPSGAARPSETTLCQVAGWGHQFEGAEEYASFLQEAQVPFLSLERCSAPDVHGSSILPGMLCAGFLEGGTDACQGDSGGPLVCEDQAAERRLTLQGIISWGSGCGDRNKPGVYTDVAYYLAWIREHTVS

Row | SMILES | IC50 (Human Factor XIIa) [µM] | IC50 (Plasma Kallikrein) [µM] | IC50 (FXa) [µM] | IC50 (Thrombin) [µM] | IC50 (FXIa) [µM] | IC50 (KLK1) [µM]
1 | Nc1nccc2cc(NCc3ccc(COC4CCN(CC(F)F)CC4)cc3)ccc12 [Example 2196, 6-N-{[4-({[1-(2,2-difluoroethyl)piperidin-4-yl]oxy}methyl)phenyl]methyl}isoquinoline-1,6-diamine] | 1 to 3 | 10 to 40 | 10 to 40 | 10 to 40 | > 40 | 
2 | Nc1nccc2cc(NCc3ccc(COC4CCN(C5CC5)CC4)cc3)ccc12 [Example 2195, 6-N-[(4-{[(1-cyclopropylpiperidin-4-yl)oxy]methyl}phenyl)methyl]isoquinoline-1,6-diamine] | 0.3 to 1 | 3 to 10 | 10 to 40 | 10 to 40 | > 40 | 
3 | CN1CC2C[C@H]1C[C@H]2OCc1ccc(CNc2ccc3c(N)nccc3c2)c(F)c1 (single isomer, unassigned) [Example 2198, N6-(2-fluoro-4-((((4S*,5R*)-2-methyl-2-azabicyclo[2.2.1]heptan-5-yl)oxy)methyl)benzyl)isoquinoline-1,6-diamine] | 0.1 to 0.3 | 3 to 10 | 3 to 10 | 10 to 40 | > 20 | 
4 | CN1CCC(CCc2ccc(CNc3cccc4c(N)nccc34)cc2)CC1 [Example 2178, 5-N-({4-[2-(1-methylpiperidin-4-yl)ethyl]phenyl}methyl)isoquinoline-1,5-diamine] | 0.01 to 0.1 | 10 to 40 | > 40 | > 40 | > 40 | 
5 | CN1C[C@@H](COc2cc(CNc3cccc4c(N)nccc34)ccn2)OC1=O [Example 4279, (5S)-5-{[(4-{[(1-aminoisoquinolin-5-yl)amino]methyl}pyridin-2-yl)oxy]methyl}-3-methyl-1,3-oxazolidin-2-one] | 3 to 10 | > 40 | > 40 | > 40 |  | 10 to 40
6 | CC(=O)N1CC2CC1CC2COc1cc(CNc2cccc3c(N)nccc23)ccn1 (stereo not shown) [Example 4274, 1-(5-(((4-(((1-Aminoisoquinolin-5-yl)amino)methyl)pyridin-2-yl)oxy)methyl)-2-azabicyclo[2.2.1]heptan-2-yl)ethan-1-one] | 1 to 3 | > 40 | 1 to 3 | 10 to 40 |  | 3 to 10
7 | CN1CCC(CNc2cc(CNc3ccc4c(N)ncc(Cl)c4c3)ccn2)CC1 [Example 4285, 4-Chloro-N6-((2-(((1-methylpiperidin-4-yl)methyl)amino)pyridin-4-yl)methyl)isoquinoline-1,6-diamine] | 0.01 to 0.1 | > 40 | 10 to 40 | > 40 |  | 3 to 10
8 | CC(C)N1C[C@H]2C[C@@H]1CN2Cc1cc(CNc2cccc3c(N)nccc23)ccn1 [Example 4294, 5-N-[(2-{[(1R,4R)-5-isopropyl-2,5-diazabicyclo[2.2.1]heptan-2-yl]methyl}pyridin-4-yl)methyl]isoquinoline-1,5-diamine] | 10 to 40 | > 40 | > 40 | > 40 |  | 10 to 40

The remaining lines, values ahead:

Row | IC50 (Human Factor XIIa) [µM] | IC50 (Plasma Kallikrein) [µM] | IC50 (FXa) [µM] | IC50 (Thrombin) [µM] | IC50 (FXIa) [µM] | IC50 (KLK1) [µM] | SMILES
9 | 0.1 to 0.3 | 1 to 3 | 1 to 3 | 3 to 10 | > 40 |  | Nc1nccc2cc(NCc3ccc(OCC4CCn5ccnc5C4)nc3)ccc12 (stereo not shown) [Example 1006, N6-((6-((5,6,7,8-tetrahydroimidazo[1,2-a]pyridin-7-yl)methoxy)pyridin-3-yl)methyl)isoquinoline-1,6-diamine]
10 | 0.1 to 0.3 | 3 to 10 | > 40 | > 40 | > 40 |  | CN1CCC(COc2ccc(CNc3cccc4c(N)nccc34)cn2)CC1 [Example 1009, N5-((6-((1-methylpiperidin-4-yl)methoxy)pyridin-3-yl)methyl)isoquinoline-1,5-diamine]
11 | 0.1 to 0.3 | 3 to 10 | 3 to 10 | 3 to 10 | > 40 |  | CN1CCC(OCc2ccc(CNc3ccc4c(N)nccc4c3)cc2)CC1 [Example 2185, N6-(4-(((1-methylpiperidin-4-yl)oxy)methyl)benzyl)isoquinoline-1,6-diamine]
